Assay results published in US20090275655A1, “Pharmaceutical Gallium Compositions and Methods” (priority 2008, published 2009).

Assay: intravenous infusion in a cystic fibrosis patient, concentration of ionic gallium in sputum, plasma and whole blood
Format: in vivo, human patient
Method: During one such treatment, this patient received an infusion of gallium citrate-nitrate over 5 days at a dose of 240 mg/day, or approximately 150 mg/m^2/day, and the concentration of ionic gallium in a deep-cough sputum specimen was then measured. The gallium concentration in the sputum was 3.2 μg/ml, or approximately 46 μmol/L, which is a concentration that is adequate to kill resistant Pseudomonas organisms in vivo. See Kaneko et al., J. Clin. Invest. 117:877-888 (2007).
Beginning about 1 month later, the same patient from Example 4 was given additional infusions of gallium citrate-nitrate at doses of 200 mg/m^2/day over 5 days, and the concentration of ionic gallium in deep-cough sputum specimens was again determined. […] The concentrations at days 5-11 are high, and even after cessation of treatment they remain levels that are believed to be therapeutic in vivo.

[1] = Treatment Number Two, 200 mg/m^2/d, end of infusion, Day 5 (verification repeat)

gallium citrate-nitrate
gallium concentration, Sputum (Treatment Number One, 150 mg/m^2/d, end of infusion, Day 5): 2.22 µg/mL
gallium concentration, Sputum (Treatment Number Two, 200 mg/m^2/d, end of infusion, Day 5): 2.13 µg/mL
gallium concentration, Whole Blood (Treatment Number Two, 200 mg/m^2/d, end of infusion, Day 5 20:00 h): 1.64 µg/mL
gallium concentration, Plasma [1]: 1.35 µg/mL
gallium concentration, Sputum [1]: 2.65 µg/mL
gallium concentration, Sputum (Treatment Number Two, Baseline (Time 0), one month after Treatment One): 0.32 µg/mL
gallium concentration, Sputum (Treatment Number Two, Post-Infusion, Day 6): 1.83 µg/mL
gallium concentration, Sputum (Treatment Number Two, Post-Infusion, Day 7): 2.04 µg/mL
gallium concentration, Sputum (Treatment Number Two, Post-Infusion, Day 9): 4.35 µg/mL
gallium concentration, Sputum (Treatment Number Two, Post-Infusion, Day 11): 4.78 µg/mL
sputum levels exceed plasma concentrations (patient, following systemic (IV) administration): roughly 2 fold
